Tested on: cancer cells
Assay: MTT cytotoxic assay of esterification products (Cytotoxicity activity)
Assay type: cell-based, human
Details: esterification products isolated with HPLC; graded strong / moderate / weak
Outline: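 Cytotoxicity was read by MTT (Carmichael method, modified), with cells seeded 24 h ahead of treatment. Sixteen human cancer lines spanning bone, lung, bladder, ovary, colon, pancreas, prostate, skin, mouth, kidney, breast, liver, brain, leukemia and cervix were used. Test samples were acyl chloride esterification products of triterpenes, as mixtures or HPLC-purified compounds.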

| Structure (SMILES) | Cytotoxicity activity |
| --- | --- |
| CC=C(C)C(=O)OCC1(C)C(O)CCC2(C)C1CCC1(C)C2CC=C2C3CC(C)(C)C(O)C(OC(=O)C(CC)CC)C3(CO)C(O)CC21C (centres unmarked) [Tig—Eth—6] | moderate |
| CC=C(C)C(=O)OCC1(C)C(O)CCC2(C)C1CCC1(C)C2CC=C2C3CC(C)(C)C(O)C(O)C3(COC(=O)CCCCC)C(O)CC21C (centres unmarked) [Tig—Hex—1] | strong |
| CC=C(C)C(=O)OCC1(C)C(O)CCC2(C)C1CCC1(C)C2CC=C2C3CC(C)(C)C(OC(=O)CCCCC)C(O)C3(COC(=O)CCCCC)C(O)CC21C (centres unmarked) [Tig—Hex—2] | moderate |
| CC=C(C)C(=O)OCC1(C)C(O)CCC2(C)C1CCC1(C)C2CC=C2C3CC(C)(C)C(O)C(OC(=O)CCCCC)C3(COC(=O)CCCCC)C(O)CC21C (centres unmarked) [Tig—Hex—3] | moderate |
| CC=C(C)C(=O)OCC1(C)C(OC(=O)CCCCC)CCC2(C)C1CCC1(C)C2CC=C2C3CC(C)(C)C(O)C(O)C3(COC(=O)CCCCC)C(O)CC21C (centres unmarked) [Tig—Hex—4] | moderate |
| CC=C(C)C(=O)OCC1(C)C(O)CCC2(C)C1CCC1(C)C2CC=C2C3CC(C)(C)C(OC(=O)CCCCC)C(O)C3(CO)C(O)CC21C (centres unmarked) [Tig—Hex—5] | moderate |
| CC=C(C)C(=O)OCC1(C)C(O)CCC2(C)C1CCC1(C)C2CC=C2C3CC(C)(C)C(O)C(OC(=O)CCCCC)C3(CO)C(O)CC21C (centres unmarked) [Tig—Hex—6] | moderate |
| C=CCCC(=O)OCC12C(O)CC3(C)C(=CCC4C5(C)CCC(O)C(C)(COC(=O)C(C)=CC)C5CCC43C)C1CC(C)(C)C(O)C2O (centres unmarked) [Tig—Pen—1] | strong |
| C=CCCC(=O)OCC12C(O)CC3(C)C(=CCC4C5(C)CCC(O)C(C)(COC(=O)C(C)=CC)C5CCC43C)C1CC(C)(C)C(OC(=O)CCC=C)C2O (centres unmarked) [Tig—Pen—2] | moderate |
| C=CCCC(=O)OCC12C(O)CC3(C)C(=CCC4C5(C)CCC(O)C(C)(COC(=O)C(C)=CC)C5CCC43C)C1CC(C)(C)C(O)C2OC(=O)CCC=C (centres unmarked) [Tig—Pen—3] | moderate |
| C=CCCC(=O)OCC12C(O)CC3(C)C(=CCC4C5(C)CCC(OC(=O)CCC=C)C(C)(COC(=O)C(C)=CC)C5CCC43C)C1CC(C)(C)C(O)C2O (centres unmarked) [Tig—Pen—4] | moderate |
| C=CCCC(=O)OC1C(O)C2(CO)C(O)CC3(C)C(=CCC4C5(C)CCC(O)C(C)(COC(=O)C(C)=CC)C5CCC43C)C2CC1(C)C (centres unmarked) [Tig—Pen—5] | moderate |
| C=CCCC(=O)OC1C(O)C(C)(C)CC2C3=CCC4C5(C)CCC(O)C(C)(COC(=O)C(C)=CC)C5CCC4(C)C3(C)CC(O)C21CO (centres unmarked) [Tig—Pen—6] | moderate |
| CC=C(C)C(=O)OCC1(C)C(O)CCC2(C)C1CCC1(C)C2CC=C2C3CC(C)(C)C(OC(C)=O)C(OC(C)=O)C3(COC(=O)C(C)=CC)C(O)CC21C (centres unmarked) [Tig—R—Acy—1] | weak |
| CC=C(C)C(=O)OCC1(C)C(O)CCC2(C)C1CCC1(C)C2CC=C2C3CC(C)(C)C(OC(C)=O)C(O)C3(COC(=O)C(C)=CC)C(O)CC21C (centres unmarked) [Tig—R—Acy—2] | moderate |
| CC=C(C)C(=O)OCC1(C)C(O)CCC2(C)C1CCC1(C)C2CC=C2C3CC(C)(C)C(O)C(OC(C)=O)C3(COC(=O)C(C)=CC)C(O)CC21C (centres unmarked) [Tig—R—Acy—3] | moderate |
| CC=C(C)C(=O)OCC1(C)C(OC(C)=O)CCC2(C)C1CCC1(C)C2CC=C2C3CC(C)(C)C(O)C(O)C3(COC(=O)C(C)=CC)C(O)CC21C (centres unmarked) [Tig—R—Acy—4] | moderate |
| CC=C(C)C(=O)OCC1(C)C(OC(C)=O)CCC2(C)C1CCC1(C)C2CC=C2C3CC(C)(C)C(OC(C)=O)C(O)C3(COC(=O)C(C)=CC)C(O)CC21C (centres unmarked) [Tig—R—Acy—5] | weak |
| CC=C(C)C(=O)OCC1(C)C(OC(C)=O)CCC2(C)C1CCC1(C)C2CC=C2C3CC(C)(C)C(O)C(OC(C)=O)C3(COC(=O)C(C)=CC)C(O)CC21C (centres unmarked) [Tig—R—Acy—6] | weak |
| CC=C(C)C(=O)OCC1(C)C(O)CCC2(C)C1CCC1(C)C2CC=C2C3CC(C)(C)C(OC(=O)C(C)=CC)C(OC(=O)C(C)=CC)C3(COC(=O)C(C)=CC)C(O)CC21C (centres unmarked) [Tig—R—Ang—1] | weak |
| CC=C(C)C(=O)OCC1(C)C(OC(=O)C(C)=CC)CCC2(C)C1CCC1(C)C2CC=C2C3CC(C)(C)C(OC(=O)C(C)=CC)C(O)C3(COC(=O)C(C)=CC)C(O)CC21C (centres unmarked) [Tig—R—Ang—5] | weak |
| CC=C(C)C(=O)OCC1(C)C(OC(=O)C(C)=CC)CCC2(C)C1CCC1(C)C2CC=C2C3CC(C)(C)C(O)C(OC(=O)C(C)=CC)C3(COC(=O)C(C)=CC)C(O)CC21C (centres unmarked) [Tig—R—Ang—6] | weak |
| CC=C(C)C(=O)OCC1(C)C(O)CCC2(C)C1CCC1(C)C2CC=C2C3CC(C)(C)C(OC(=O)C=Cc4ccccc4)C(OC(=O)C=Cc4ccccc4)C3(COC(=O)C(C)=CC)C(O)CC21C (centres unmarked) [Tig—R—Cin—1] | weak |
| CC=C(C)C(=O)OCC1(C)C(O)CCC2(C)C1CCC1(C)C2CC=C2C3CC(C)(C)C(OC(=O)C=Cc4ccccc4)C(O)C3(COC(=O)C(C)=CC)C(O)CC21C (centres unmarked) [Tig—R—Cin—2] | moderate |

| Structure (SMILES) | Cytotoxicity activity |
| --- | --- |
| CC=C(C)C(=O)OCC1(C)C(O)CCC2(C)C1CCC1(C)C2CC=C2C3CC(C)(C)C(O)C(OC(=O)C=Cc4ccccc4)C3(COC(=O)C(C)=CC)C(O)CC21C (centres unmarked) [Tig—R—Cin—3] | moderate |
| CC=C(C)C(=O)OCC1(C)C(OC(=O)C=Cc2ccccc2)CCC2(C)C1CCC1(C)C2CC=C2C3CC(C)(C)C(O)C(O)C3(COC(=O)C(C)=CC)C(O)CC21C (centres unmarked) [Tig—R—Cin—4] | moderate |
| CC=C(C)C(=O)OCC1(C)C(OC(=O)C=Cc2ccccc2)CCC2(C)C1CCC1(C)C2CC=C2C3CC(C)(C)C(OC(=O)C=Cc4ccccc4)C(O)C3(COC(=O)C(C)=CC)C(O)CC21C (centres unmarked) [Tig—R—Cin—5] | weak |
| CC=C(C)C(=O)OCC1(C)C(OC(=O)C=Cc2ccccc2)CCC2(C)C1CCC1(C)C2CC=C2C3CC(C)(C)C(O)C(OC(=O)C=Cc4ccccc4)C3(COC(=O)C(C)=CC)C(O)CC21C (centres unmarked) [Tig—R—Cin—6] | weak |
| CC=CC(=O)OC1C(OC(=O)C=CC)C2(COC(=O)C(C)=CC)C(O)CC3(C)C(=CCC4C5(C)CCC(O)C(C)(COC(=O)C(C)=CC)C5CCC43C)C2CC1(C)C (centres unmarked) [Tig—R—Cro—1] | weak |
| CC=CC(=O)OC1C(O)C2(COC(=O)C(C)=CC)C(O)CC3(C)C(=CCC4C5(C)CCC(O)C(C)(COC(=O)C(C)=CC)C5CCC43C)C2CC1(C)C (centres unmarked) [Tig—R—Cro—2] | moderate |
| CC=CC(=O)OC1C(O)C(C)(C)CC2C3=CCC4C5(C)CCC(O)C(C)(COC(=O)C(C)=CC)C5CCC4(C)C3(C)CC(O)C21COC(=O)C(C)=CC (centres unmarked) [Tig—R—Cro—3] | moderate |
| CC=CC(=O)OC1CCC2(C)C(CCC3(C)C2CC=C2C4CC(C)(C)C(O)C(O)C4(COC(=O)C(C)=CC)C(O)CC23C)C1(C)COC(=O)C(C)=CC (centres unmarked) [Tig—R—Cro—4] | moderate |
| CC=CC(=O)OC1C(O)C2(COC(=O)C(C)=CC)C(O)CC3(C)C(=CCC4C5(C)CCC(OC(=O)C=CC)C(C)(COC(=O)C(C)=CC)C5CCC43C)C2CC1(C)C (centres unmarked) [Tig—R—Cro—5] | weak |
| CC=CC(=O)OC1CCC2(C)C(CCC3(C)C2CC=C2C4CC(C)(C)C(O)C(OC(=O)C=CC)C4(COC(=O)C(C)=CC)C(O)CC23C)C1(C)COC(=O)C(C)=CC (centres unmarked) [Tig—R—Cro—6] | weak |
| CC=C(C)C(=O)OCC1(C)C(O)CCC2(C)C1CCC1(C)C2CC=C2C3CC(C)(C)C(OC(=O)C(CC)CC)C(OC(=O)C(CC)CC)C3(COC(=O)C(C)=CC)C(O)CC21C (centres unmarked) [Tig—R—Eth—1] | weak |
| CC=C(C)C(=O)OCC1(C)C(O)CCC2(C)C1CCC1(C)C2CC=C2C3CC(C)(C)C(OC(=O)C(CC)CC)C(O)C3(COC(=O)C(C)=CC)C(O)CC21C (centres unmarked) [Tig—R—Eth—2] | moderate |
| CC=C(C)C(=O)OCC1(C)C(O)CCC2(C)C1CCC1(C)C2CC=C2C3CC(C)(C)C(O)C(OC(=O)C(CC)CC)C3(COC(=O)C(C)=CC)C(O)CC21C (centres unmarked) [Tig—R—Eth—3] | moderate |
| CC=C(C)C(=O)OCC1(C)C(OC(=O)C(CC)CC)CCC2(C)C1CCC1(C)C2CC=C2C3CC(C)(C)C(O)C(O)C3(COC(=O)C(C)=CC)C(O)CC21C (centres unmarked) [Tig—R—Eth—4] | moderate |
| CC=C(C)C(=O)OCC1(C)C(OC(=O)C(CC)CC)CCC2(C)C1CCC1(C)C2CC=C2C3CC(C)(C)C(OC(=O)C(CC)CC)C(O)C3(COC(=O)C(C)=CC)C(O)CC21C (centres unmarked) [Tig—R—Eth—5] | weak |
| CC=C(C)C(=O)OCC1(C)C(OC(=O)C(CC)CC)CCC2(C)C1CCC1(C)C2CC=C2C3CC(C)(C)C(O)C(OC(=O)C(CC)CC)C3(COC(=O)C(C)=CC)C(O)CC21C (centres unmarked) [Tig—R—Eth—6] | weak |
| CC=C(C)C(=O)OCC1(C)C(O)CCC2(C)C1CCC1(C)C2CC=C2C3CC(C)(C)C(OC(=O)CCCCC)C(OC(=O)CCCCC)C3(COC(=O)C(C)=CC)C(O)CC21C (centres unmarked) [Tig—R—Hex—1] | weak |
| CC=C(C)C(=O)OCC1(C)C(O)CCC2(C)C1CCC1(C)C2CC=C2C3CC(C)(C)C(OC(=O)CCCCC)C(O)C3(COC(=O)C(C)=CC)C(O)CC21C (centres unmarked) [Tig—R—Hex—2] | moderate |
| CC=C(C)C(=O)OCC1(C)C(O)CCC2(C)C1CCC1(C)C2CC=C2C3CC(C)(C)C(O)C(OC(=O)CCCCC)C3(COC(=O)C(C)=CC)C(O)CC21C (centres unmarked) [Tig—R—Hex—3] | moderate |
| CC=C(C)C(=O)OCC1(C)C(OC(=O)CCCCC)CCC2(C)C1CCC1(C)C2CC=C2C3CC(C)(C)C(O)C(O)C3(COC(=O)C(C)=CC)C(O)CC21C (centres unmarked) [Tig—R—Hex—4] | moderate |
| CC=C(C)C(=O)OCC1(C)C(OC(=O)CCCCC)CCC2(C)C1CCC1(C)C2CC=C2C3CC(C)(C)C(OC(=O)CCCCC)C(O)C3(COC(=O)C(C)=CC)C(O)CC21C (centres unmarked) [Tig—R—Hex—5] | weak |
| CC=C(C)C(=O)OCC1(C)C(OC(=O)CCCCC)CCC2(C)C1CCC1(C)C2CC=C2C3CC(C)(C)C(O)C(OC(=O)CCCCC)C3(COC(=O)C(C)=CC)C(O)CC21C (centres unmarked) [Tig—R—Hex—6] | weak |
| C=CCCC(=O)OC1C(OC(=O)CCC=C)C2(COC(=O)C(C)=CC)C(O)CC3(C)C(=CCC4C5(C)CCC(O)C(C)(COC(=O)C(C)=CC)C5CCC43C)C2CC1(C)C (centres unmarked) [Tig—R—Pen—1] | weak |

Reference: patent US20230340012A1, “NATURAL AND SYNTHETIC COMPOUNDS FOR TREATING CANCER AND OTHER DISEASES” (PACIFIC ARROW LIMITED, priority 2009, published 2023)
